From PubChem BioAssay AID192 (DTP/NCI, 2004) come the findings set out here.

Several values for one entry are separate records, joined by “and”; a condition that tells them apart may be missing. Equal entries are not always repeated. Toxic doses and inconclusive results are not listed.

The subject of this assay is BDF1 mice, B16 melanoma ip, median survival T/C. As to the kind of experiment: NCI In Vivo Anticancer Drug Screen. Data for tumor model B16 Melanoma (intraperitoneal) in B6D2F1 (BDF1) mice. The following applies: endpoint: median survival time, higher = longer survival. The method, boiled down:
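Compounds were tested in mice carrying transplantable tumors. Survival or tumor size was recorded, and each value is the treated-group measurement (T) divided by that of the vehicle-treated control group (C).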

[1] abbreviates: dose: 50.0 mg/kg/injection, schedule: Q04DX003 (ip), vehicle: saline with Tween-80.
The mark [2] stands for this setting: dose: 100.0 mg/kg/injection, schedule: Q04DX003 (ip), vehicle: saline with Tween-80.
Where [3] appears, read: dose: 200.0 mg/kg/injection, schedule: Q04DX003 (ip), vehicle: saline with Tween-80.
The mark [4] stands for this setting: dose: 100.0 mg/kg/injection, schedule: Q01DX009 (ip), vehicle: Klucel (hydroxypropylcellulose) (HPC).
[5] abbreviates: dose: 200.0 mg/kg/injection, schedule: Q01DX009 (ip), vehicle: Klucel (hydroxypropylcellulose) (HPC).
The mark [6] stands for this setting: dose: 100.0 mg/kg/injection, schedule: Q01DX009 (ip), vehicle: saline with Tween-80.

For the molecule `CCc1ccc(NC(=O)Nc2ccccc2OC)cc1`, the T/C by setting is: (dose: 100.0 mg/kg/injection, schedule: Q01DX009 (ip), vehicle: gum acacia) 105 % of control; (dose: 200.0 mg/kg/injection, schedule: Q01DX009 (ip), vehicle: gum acacia) 98 % of control; (dose: 400.0 mg/kg/injection, schedule: Q01DX009 (ip), vehicle: gum acacia) 101 % of control.
`Cc1c(O)ccc(=O)n1O`: the T/C is 97 % of control (dose: 40.0 mg/kg/injection, schedule: Q01DX009 (ip), vehicle: saline with Tween-80); 101 % of control and 102 % of control and 111 % of control (dose: 80.0 mg/kg/injection, schedule: Q01DX009 (ip), vehicle: saline with Tween-80); 94 % of control (2×) and 111 % of control (dose: 160.0 mg/kg/injection, schedule: Q01DX009 (ip), vehicle: saline with Tween-80); 97 % of control (dose: 320.0 mg/kg/injection, schedule: Q01DX009 (ip), vehicle: saline with Tween-80).
As for `NCCSC(C[N+](=O)[O-])c1ccc2c(c1)OCO2` (stereo not drawn), the T/C was 102 % of control under setting [1], 105 % of control under setting [2] and 105 % of control under setting [3].
In the case of `Nc1ccccc1SC1CC(=O)N(c2ccc(Br)cc2Cl)C1=O` (stereo not drawn), the T/C (dose: 50.0 mg/kg/injection, schedule: Q01DX009 (ip), vehicle: Klucel (hydroxypropylcellulose) (HPC)) is 94 % of control.
Regarding `Oc1c(CN2CCCC2)cc(Nc2cc(/C=C/c3ccc(Cl)cc3)nc(/C=C\c3ccc(Cl)cc3)n2)cc1CN1CCCC1`, the T/C is 105 % of control (dose: 3.0 mg/kg/injection, schedule: Q04DX003 (ip), vehicle: Klucel (hydroxypropylcellulose) (HPC)); 97 % of control (dose: 6.0 mg/kg/injection, schedule: Q04DX003 (ip), vehicle: Klucel (hydroxypropylcellulose) (HPC)); 89 % of control (dose: 12.0 mg/kg/injection, schedule: Q04DX003 (ip), vehicle: Klucel (hydroxypropylcellulose) (HPC)).
For `CCc1ccc(NC(=O)Nc2cccc(Cl)c2)cc1`, the T/C is, setting by setting: under setting [4], 91 % of control; under setting [5], 102 % of control; (dose: 400.0 mg/kg/injection, schedule: Q01DX009 (ip), vehicle: Klucel (hydroxypropylcellulose) (HPC)) 88 % of control.
For the molecule `CCC(CCCN(CC)CCc1ccccc1)OC(=O)c1cc(OC)c(OC)c(OC)c1` (stereo not drawn), the T/C by setting is: (dose: 4.68 mg/kg/injection, schedule: Q01DX009 (ip), vehicle: saline) 104 % of control; (dose: 9.37 mg/kg/injection, schedule: Q01DX009 (ip), vehicle: saline) 108 % of control; (dose: 18.75 mg/kg/injection, schedule: Q01DX009 (ip), vehicle: saline) 103 % of control; (dose: 37.5 mg/kg/injection, schedule: Q01DX009 (ip), vehicle: saline) 100 % of control; (dose: 75.0 mg/kg/injection, schedule: Q01DX009 (ip), vehicle: saline) 91 % of control.
For `CCC(C)C(=O)OC1C(=O)OC2CC3C(C)=CC(=O)C(O)C3(C)C3C4(O)OCC23C1C(C)C4O` (stereo not drawn), the T/C (dose: 1.4 mg/kg/injection, schedule: Q01DX009 (ip), vehicle: saline) is 157 % of control and the T/C (dose: 2.8 mg/kg/injection, schedule: Q01DX009 (ip), vehicle: saline with Tween-80) was 153 % of control.
As to `O=C(O)/C(Br)=C/c1ccccc1`, the T/C is 107 % of control under setting [1], 112 % of control under setting [2] and 102 % of control under setting [3].
With `CCOc1ccc(/C=N\N=C\c2ccc(OCC)cc2)cc1`, the T/C was 95 % of control under setting [4]; 90 % of control and 110 % of control under setting [5].
Regarding `CC(C)(C)OC(=O)NC(CCC(=O)OCc1ccccc1)C(=O)ON1C(=O)CCC1=O` (stereo not drawn), the T/C is, setting by setting: (dose: 50.0 mg/kg/injection, schedule: Q01DX009 (ip), vehicle: saline with Tween-80) 95 % of control; under setting [6], 90 % of control.
Regarding `O=CNC(CSSCC(NC=O)C(=O)O)C(=O)O` (stereo not drawn), the T/C is, setting by setting: under setting [6], 93 % of control; (dose: 200.0 mg/kg/injection, schedule: Q01DX009 (ip), vehicle: saline with Tween-80) 95 % of control.
